What all share (assay): cell-based
Common to all, as to details: read-out: YM pIC50 (converted)

One assay has as its target T1, Gα16 (G16 WT) M187V (Homo sapiens, UniProt P30679, M187V).
T1 construct: gene GNA15; human Gα16 cDNA in pcDNA3.1(+), expressed in CRISPR/Cas9 Gαq/Gα11-null HEK293 cells (transient); endogenous Gβγ
T1 sequence (P30679 1-374 M187V): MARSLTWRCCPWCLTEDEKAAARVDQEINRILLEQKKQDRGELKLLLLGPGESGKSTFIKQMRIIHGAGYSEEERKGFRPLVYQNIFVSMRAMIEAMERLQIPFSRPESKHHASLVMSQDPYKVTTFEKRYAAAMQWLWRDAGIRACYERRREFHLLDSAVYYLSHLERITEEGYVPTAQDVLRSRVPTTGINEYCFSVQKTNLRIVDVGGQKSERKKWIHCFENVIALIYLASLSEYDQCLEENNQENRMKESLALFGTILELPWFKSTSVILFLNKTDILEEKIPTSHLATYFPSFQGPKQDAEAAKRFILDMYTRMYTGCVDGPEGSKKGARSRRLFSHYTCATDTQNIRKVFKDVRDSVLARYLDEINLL
Further details: species or system HEK293 Gαq/Gα11-null (CRISPR/Cas9). The method, then: (§1) Successful mutations were verified by DNA sequencing. Subconfluent cell cultures were transiently transfected with the respective expression plasmids using the polyethylenimine reagent (Polysciences, Warrington, PA) following the protocol provided by the manufacturer. All data were analyzed using GraphPad Prism 8.0.0 (GraphPad Inc., La Jolla, CA). Quantification of DMR signals was performed by calculation of the maximum responses. Data points from concentration-response or inhibition curves of individual functional experiments were fitted to the following four-parameter logistic function. (Eq. 1) Y=Bottom+(Top−Bottom)/1+10^(logEC50−x)slope Concentration-effect curves represented in figures were normalized by setting each experimental maximal effect as 100% response. All data are expressed as mean + or ± S.E. of at least three independent experiments performed in technical triplicates.

Another assay addresses T2, Gα16 (G16 WT) E74D (Homo sapiens, UniProt P30679, E74D).
T2 construct: gene GNA15; human Gα16 cDNA in pcDNA3.1(+), expressed in CRISPR/Cas9 Gαq/Gα11-null HEK293 cells (transient); endogenous Gβγ
T2 sequence (P30679 1-374 E74D): T1 sequence (P30679 1-374 M187V) with E74D, V187M
Also on record: species or system HEK293 Gαq/Gα11-null (CRISPR/Cas9). How it is done: as §1

In a further assay the target is T3, Gα16 (G16 WT) C196P (Homo sapiens, UniProt P30679, C196P).
T3 construct: gene GNA15; human Gα16 cDNA in pcDNA3.1(+), expressed in CRISPR/Cas9 Gαq/Gα11-null HEK293 cells (transient); endogenous Gβγ
T3 sequence (P30679 1-374 C196P): T1 sequence (P30679 1-374 M187V) with V187M, C196P
Also on record: species or system HEK293 Gαq/Gα11-null (CRISPR/Cas9). How it is done:
as §1

The target of the next assay is T4, Gα16 (G16 WT) S185V (Homo sapiens, UniProt P30679, S185V).
T4 construct: gene GNA15; human Gα16 cDNA in pcDNA3.1(+), expressed in CRISPR/Cas9 Gαq/Gα11-null HEK293 cells (transient); endogenous Gβγ
T4 sequence (P30679 1-374 S185V): T1 sequence (P30679 1-374 M187V) with S185V, V187M
Further details: species or system HEK293 Gαq/Gα11-null (CRISPR/Cas9), transfected Gα. The method, then:
Quantification of DMR signals was performed by calculation of the maximum responses. Data points from concentration-response or inhibition curves of individual functional experiments were fitted to the following four-parameter logistic function. (Eq. 1) Y=Bottom+(Top−Bottom)/1+10^(logEC50−x)slope Concentration-effect curves represented in figures were normalized by setting each experimental maximal effect as 100% response. All data are expressed as mean + or ± S.E. of at least three independent experiments performed in technical triplicates. […] Because none of our mutant proteins were […], we searched for additional residues that, when mutated, may incur activity loss for the two depsipeptides. We focused our attention on residues that (i) differed between Gαq and Gα16, (ii) were not addressed previously by mutagenesis, and (iii) were located on both linkers, including adjacent regions, to either directly interact with the depsipeptides (if side-chain or Gα atoms were within 5 Å to YM) or to be close enough to assist in stabilizing the inhibitor–protein interactions. Aspartate 71 (Asp-71) and valine 182 (Val-182) fulfilled these criteria (Fig. 3A; see also Fig. 2A): Asp-71 is part of an aspartic acid–arginine salt bridge that likely provides the interface between the depsipeptides and linker 1 by stabilizing and maintaining the inhibitor–linker 1 spacing (Fig. 3B). […]

Residue numbers refer to the chain shown, from its start. Numbered stars: 1 amine (or outer) side, 2 acyl side, 3 side chain; on linkers, the order of the positions; unused ones are H or OH. Bridge positions count the residues as written; N and C are the ends. Square brackets hold non-standard residues; d marks the D form. Peptide text beside a SMILES is read from it. X2 = CC(=O)NC(C(=O)OC(C(C)C)C(N[*:1])C(=O)[*:2])C(O)C(C)C; PhLac = O=C(O)[CH](O)Cc1ccccc1; NMeT = CN[CH](C(=O)O)[CH](C)O; NMeA = CN[CH](C)C(=O)O; NMeDha = C=C(NC)C(=O)O

As to `C=C1C(=O)NC(C)C(=O)N(C)C(C)C(=O)NC(C(OC(=O)C(NC(C)=O)C(O)C(C)C)C(C)C)C(=O)N(C)C(C(C)OC)C(=O)OC(C)C(NC(C)=O)C(=O)OC(Cc2ccccc2)C(=O)N1C` (stereo not shown) [YM, YM-254890] (Ac-T[PhLac][NMeDha]A[NMeA][X2][NMeT](Me); ester 1-C; configuration not given here), the IC50 at Gα16 (G16 WT) M187V was > 1000 µM; at Gα16 (G16 WT) E74D it was > 1000 µM; at Gα16 (G16 WT) C196P, > 1000 µM; on Gα16 (G16 WT) S185V it was ~316 µM.

Source of the values: PMC6463727, “Rational design of a heterotrimeric G protein α subunit with artificial inhibitor sensitivity” (The Journal of Biological Chemistry, 2019).
